Results from patent publication US20180135134A1, “TARGETED SELECTION OF PATIENTS FOR TREATMENT WITH CORTISTATIN DERIVATIVES” (President and Fellows of Harvard College, priority 2015, published 2018).

Legend:
[1] = system: megakaryocytic cell lines; assay: Cellular proliferation assay, megakaryocytic cell lines; conditions: Homo sapiens
Procedure: (§1) All suspension cells were plated (96-well) in triplicate at 5,000-30,000 cells per well for testing (n=3). Viable cell number was estimated after 3, 7 and 10 days by counting viable cells from one vehicle well, generating a cell dilution series, transferring 20 ml per well in duplicate to a 384-well plate, and performing a linear regression to CellTiter-Glo (Promega) response (SPECTRAmax M3, Molecular Devices). Cells from all wells were also fourfold diluted in media and transferred in duplicate for CellTiter-Glo measurement. On days 3 and 7, an equal volume for all wells was split-back with fresh media and compound, such that the resulting cell density for the vehicle well matched the initial seeding density. For days 7 and 10, estimated cell number represents the split-adjusted theoretical cell number. […] For growth assays with inhibitors, n=3 for each concentration with two independent experiments.

[2] = system: SK-N-MC; assay: Soft agar growth assay (Alamar Blue); conditions: Neuroblastoma, EWS-FLI1, 100 nM cortistatin A
Procedure: (§2) For the 62 cell lines 96 well suspension cell culture plates were prepared. 100 μL of the soft agar bottom layer (0.6% final concentration in complete medium) was poured and left to solidify. 50 μL of the soft agar top layer (0.4% final concentration) containing the corresponding cells and cell number were then added on top, solidified and incubated at 37° C., 10% CO2. After the soft agar had solidified, the test items were added at indicated final concentrations into the inner wells of the plate. Subsequently, the assay was incubated in cell culture incubators for 8 to 14 days. Finally, the assay was developed using Alamar Blue and upon 1-5 h of incubation at 37° C. fluorescence intensity was determined (excitation: 560 nm; emission: 590 nm). As low control, cells were treated with 1E-05M Staurosporine (6fold values). As high control, cells were treated with 0.1% DMSO (solvent control, 6 fold values).
(§3) Raw data were converted into percent soft agar growth relative to high controls (solvent 0.1% DMSO) and low controls (1E-05M Staurosporine), which were set to 100% and 0%, respectively.

[3] = system: GRANTA 519; assay: Cellular proliferation assay (CellTiter-Glo); conditions: Homo sapiens
Procedure: All suspension cells were plated (96-well) in triplicate at 5,000-30,000 cells per well for testing (n=3). Viable cell number was estimated after 3, 7 and 10 days by counting viable cells from one vehicle well, generating a cell dilution series, transferring 20 ml per well in duplicate to a 384-well plate, and performing a linear regression to CellTiter-Glo (Promega) response (SPECTRAmax M3, Molecular Devices). Cells from all wells were also fourfold diluted in media and transferred in duplicate for CellTiter-Glo measurement. On days 3 and 7, an equal volume for all wells was split-back with fresh media and compound, such that the resulting cell density for the vehicle well matched the initial seeding density. For days 7 and 10, estimated cell number represents the split-adjusted theoretical cell number. HCT116 were plated (96-well) in triplicate at 250 cells per well. Cells were incubated in the presence of vehicle, 1 μM paclitaxel, or compound. On day 7, CellTiter-Blue (Promega) response was measured and values were normalized to vehicle (100% growth) and paclitaxel (0% growth). For growth assays with inhibitors, n=3 for each concentration with two independent experiments.

[4] = system: HCC827; assay: Soft agar growth assay (Alamar Blue); conditions: Non small cell lung carcinoma, EGFR mutation, 100 nM cortistatin A
Procedure: as §2, §3

[5] = biological target: T1, CDK8/19 (Homo sapiens, UniProt P49336); assay: Recombinant kinome-wide selectivity profiling (wildtype-profiler, ProQinase), 294 recombinant kinases; assay type: biochemical; conditions: 600 nM cortistatin A; FIG. 7A
T1 construct: purchased ProQinase GmbH
From the text: Recombinant kinome-wide selectivity profiling.

[6] = system: Kasumi-1; assay: Cellular proliferation assay (CellTiter-Glo); conditions: Homo sapiens
Procedure: as §1

[7] = system: SKNO-1; assay: Cellular proliferation assay (CellTiter-Glo); conditions: Homo sapiens
Procedure: as §1

[8] = system: SET-2; assay: Synergy assay with ruxolitinib (Chou-Talalay), SET-2; assay type: cell-based, human; conditions: combination of cortistatin A with JAK1/2 inhibitor ruxolitinib, FIG. 5
Procedure: SET-2 and UKE-1 cells were co-treated with constant ratios of ruxolitinib to CA, 1 to 1 or 10 to 1, in a 96-well growth assay format with a range of 2-fold dose dilutions of compounds. SET-2 and UKE-1 cells were also treated with ruxolitinib alone or CA alone in a 2-fold dilution series. The Chou-Talalay combination index values at 50% growth inhibition (Fa=0.5) were determined using CalcuSyn software (see Chou, T. C. Cancer Res. 2010 Jan. 15; 70(2):440-6) (FIG. 5).

[9] = system: REH; assay: Cellular proliferation assay (CellTiter-Glo); conditions: Homo sapiens
Procedure: as §1

[10] = system: SK-N-F1; assay: Soft agar growth assay (Alamar Blue); conditions: Neuroblastoma, 100 nM cortistatin A
Procedure: as §2, §3

[11] = system: K562; assay: Cellular proliferation assay (CellTiter-Glo); conditions: Homo sapiens
Procedure: as §1

[12] = system: HEL; assay: Cellular proliferation assay (CellTiter-Glo); conditions: Homo sapiens
Procedure: as §1

[13] = biological target: T2, CDK8 W105M (Homo sapiens, UniProt P49336, W105M); assay: Drug resistant allele growth assay in MOLM-14 cells; assay type: cell-based; conditions: expression of CDK8 W105M; FIG. 9
T2 construct: host or cells: MOLM-14 cells, lentiviral transduction (pLVX-EF1alpha-IRES vectors)
Procedure: 5′-Flag-tagged CDK8 and CDK19 were cloned from pBabe.puro.CDK8.flag (Addgene 19758) and F-CDK8L (Addgene 24762) into pLVX-EF1alpha-IRES-mCherry and pLVX-EF1alpha-IRES-ZsGreen (Clontech) and transformed into E. coli (One Shot Stbl3, Invitrogen). Point mutations were introduced by whole-plasmid PCR (QuikChange II XL Site-Directed Mutagenesis Kit, Agilent). pLVX lentiviral vectors were co-transfected with psPASx and pMD2.G (Addgene) in 293T cells. After 48 h, viral supernatants were collected and passed through a 0.45 m filter (Millipore). For transductions, 24-well plates were coated with 500 μl of 20 μg ml RetroNectin (Clontech) at 4° C. overnight, blocked with 2% BSA for 30 min, washed with PBS, and 300-500 μl of viral supernatant was added. The plates were centrifuged (2,000 g, 1.5 h) and then set in an incubator. After 2 h, viral supernatant was removed and 500 μl per well of 200,000 cells per ml was added. After 1-3 days, the cells were expanded and isolated by FACS.

[14] = system: Jurkat; assay: Cellular proliferation assay (CellTiter-Glo); conditions: Homo sapiens
Procedure: as §1

[15] = system: RUNX1 target genes including CEBPA, IRF8 and NFE2; assay: Gene expression in CA-sensitive cell lines SET-2, MOLM-14 and MV4;11; assay type: cell-based, human; conditions: SET-2, MOLM-14 and MV4;11 cell lines
Procedure: Leukemia cells were plated (12-well) in triplicate at 500,000-800,000 cells per ml and incubated in the presence of vehicle (0.1% DMSO) or CA (25 nM 3 h for K562, MOLM-14 and MV4;11; 10 nM 24 h for MOLM-14; 25 nM 4 h for SET-2, n=3 for each cell line). Cells were then washed twice with cold PBS, and snap frozen. RNA was isolated (RNeasy Plus Microkit, Qiagen or TRIzol, Life Technologies), processed, and, for K562, MOLM-14 and MV4;11, hybridized to the Human U133 Plus 2.0 microarray (Affymetrix). Microarrays were processed with Bioconductor packages affyQCReport for quality control and affy for background correction, summarization, and normalization using rma. […] SET-2 and HCT 116 gene expression was measured by RNA-seq. […] Reads were aligned in two passes, first with rnaStar (v.2.3.0e) then with BWA (v.0.7.5a) for remaining unmapped reads, both using default parameters. Mapped reads were merged and counted using HTSeq (v.0.5.3p3) with -s yes -m intersection-strict. […] Samples were run in a single lane on an Illumina HiSEQ 2000 sequencer with a single read flow cell using 1×50-bp reads and a 6-cycle index read. Reads were mapped to the hgl9 reference genome using Tophat2 v.2.0.6 with custom settings including the setting of—library-type fr—firstrand to appropriately account for the stranded nature of the protocol. […]

[16] = system: megakaryocytic and erythroleukemia cell lines; assay: Comparison of sensitivity of megakaryocytic and erythroleukemia cell lines; conditions: K562 and HEL compared to MEG-01 and SET-2 (BCR-Abl or JAK2V617F)
[17] = system: ME-1; assay: Cellular proliferation assay (CellTiter-Glo); conditions: Homo sapiens, ME-1, 240 h
Procedure: as §1

[18] = system: T47D; assay: Soft agar growth assay (Alamar Blue); conditions: Breast cancer, ER-alpha positive, 100 nM cortistatin A
Procedure: as §2, §3

T1 sequence (P49336 whole entry): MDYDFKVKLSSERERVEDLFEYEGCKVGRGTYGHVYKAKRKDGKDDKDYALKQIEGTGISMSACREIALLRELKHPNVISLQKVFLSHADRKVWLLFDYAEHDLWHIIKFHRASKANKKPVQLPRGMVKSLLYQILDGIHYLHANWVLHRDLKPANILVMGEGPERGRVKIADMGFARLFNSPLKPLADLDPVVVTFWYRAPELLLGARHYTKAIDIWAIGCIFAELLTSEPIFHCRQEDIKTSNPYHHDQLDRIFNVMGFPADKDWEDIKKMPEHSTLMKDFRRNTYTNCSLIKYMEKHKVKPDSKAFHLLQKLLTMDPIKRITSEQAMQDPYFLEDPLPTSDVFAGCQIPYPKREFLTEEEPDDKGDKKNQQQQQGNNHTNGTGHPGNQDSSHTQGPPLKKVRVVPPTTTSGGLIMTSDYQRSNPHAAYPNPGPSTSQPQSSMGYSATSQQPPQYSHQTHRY
T1 sequence (P24863 whole entry partner): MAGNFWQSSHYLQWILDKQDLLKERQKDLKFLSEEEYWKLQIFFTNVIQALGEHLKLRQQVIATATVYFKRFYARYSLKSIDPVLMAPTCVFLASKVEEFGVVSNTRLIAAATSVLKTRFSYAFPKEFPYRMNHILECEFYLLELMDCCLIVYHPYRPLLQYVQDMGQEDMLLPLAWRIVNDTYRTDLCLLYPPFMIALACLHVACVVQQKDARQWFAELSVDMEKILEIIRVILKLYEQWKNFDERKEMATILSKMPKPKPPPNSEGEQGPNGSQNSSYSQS
T2 sequence (P49336 whole entry W105M): as the sequence (P49336 whole entry) above, with W105M counted along it
T2 sequence (P24863 whole entry partner): as the sequence (P24863 whole entry partner) above

In the case of `CN(C)[C@H]1C[C@@]23CC[C@@]4(O2)C(=CC[C@]2(C)[C@@H](c5ccc6ccncc6c5)CC[C@H]24)C=C3[C@@H](O)[C@@H]1O` [Cortistatin A, cortistatin A], the GI50 [1] is reported as under 10 nM, the “% growth rel. to vehicle” value [2] is reported as 45% and the GI50 [3] is reported as 400 nM. The “% growth rel. to vehicle” value [4] was 23%, the “kinase selectivity (kinase activity percent remaining, 294 recombinant kinases)” value [5] was “selectively inhibits CDK8/19” and the GI50 [6] was 95 nM. For the same molecule, the GI50 ([7]; SKNO-1) was 1 nM, the GI50 ([7]; SKNO-1, 240 h) was 1 nM and the “combination index (synergy) for inhibition of proliferation” value [8] was “synergizes”. The GI50 [9] was 1 nM, the “% growth rel. to vehicle” value [10] was 30% and the GI50 ([11]; K562) was over 1000 nM. The GI50 ([11]; K562, 240 h) was over 1000 nM, the GI50 [12] was over 1000 nM and the GI50 ([12]; 240 h) was over 1000 nM. For the same molecule, the “growth of MOLM-14 cells expressing drug resistant allele” value [13] was “able to proliferate in the presence of cortistatin A”, the GI50 [14] was 155 nM and the “expression of RUNX1 target genes” value [15] was “upregulated RUNX1 target genes”. The “difference in sensitivity between megakaryocytic and erythroleukemia cell lines with the same mutations” value [16] was “more than 100 fold”, the GI50 [17] was 1 nM and the “% growth rel. to vehicle” value [18] was 48%.
